Assay results taken from US10287269B2, “Pyrazolyl pyrimidinone compounds as PDE2 inhibitors” (Merck Sharp & Dohme Corp., priority 2015, dated 2019).
Where two headings read alike, the source gives them in different places.

Molecular target: T1, human PDE2A1 (Homo sapiens, UniProt O00408)
T1 construct: GST; purchased BPS Bioscience (San Diego, Calif.) 60020; host or cells: insect cells
Experiment: PDE2 IMAP FP inhibition assay, human enzyme (PDE selectivity panel format)
Type: biochemical
Experimental: Selectivity for PDE2, as compared to other PDE families, was assessed using the IMAP® technology. Human PDE10A2 enzyme was prepared from cytosolic fractions of transiently transfected HEK cells. All other PDE's were GST Tag human enzyme expressed in insect cells and were obtained from BPS Bioscience (San Diego, Calif.): PDE1A (Cat#60010), human PDE2A1 (Cat#60020), PDE3A (Cat#60030), PDE4A1A (Cat#60040), PDE5A1 (Cat#60050), PDE6C (Cat#60060), PDE7A (Cat#60070), PDE8A1 (Cat#60080), PDE9A2 (Cat#60090), PDE11A4 (Cat#60110).
Assays for PDE 1 through 11 were performed in parallel at room temperature in 384-well microtiter plates with an incubation volume of 20.2 μL. Solutions of test compounds were prepared in DMSO and serially diluted with DMSO to yield 30 μL of each of ten solutions differing by 3-fold in concentration, at 32 serial dilutions per plate. […] A Labcyte POD 810 (Labcyte, Sunnyvale, Calif.) was used to dispense 200 nL from each well of the titration plate to make eleven copies of the assay plate for each titration, one copy for each PDE enzyme. A solution of each enzyme (dilution from aliquots, sufficient to produce 20% substrate conversion) and a separate solution of FAM-labeled cAMP or FAM-labeled cGMP from Molecular Devices (Sunnyvale, Calif., product # R7506 or cGMP#R7508), at a final concentration of 50 nM were made in the assay buffer (10 mM Tris HCl, pH 7.2, 10 mM MgCl2, 0.05% NaN3 0.01% Tween-20, and 1 mM DTT). Note that the substrate for PDE2 is 50 nM FAM cAMP containing 1000 nM of cGMP. The enzyme and the substrate were then added to the assay plates in two consecutive additions of 10 μL and then shaken to mix. The reaction was allowed to proceed at room temperature for 60 minutes. A binding solution was then made from the kit components, comprised of 80% Solution A, 20% Solution B and binding reagent at a volume of 1/600 the total binding solution. The enzymatic reaction was stopped by addition of 60 μL of the binding solution to each well of the assay plate. The plates were sealed and shaken for 10 seconds. The plates were incubated at room temperature for one hour, then the parallel and perpendicular fluorescence was measured using a Tecan Genios Pro plate reader (Tecan, Switzerland). The apparent inhibition constants for the compounds against all 11 PDE's was determined from the parallel and perpendicular fluorescent readings as described for PDE10 FP assay using the following apparent KM values for each enzyme and substrate combination: PDE1A (FAM cGMP) 70 nM, human PDE2A1 (FAM cAMP) 10,000 nM, PDE3A (FAM cAMP) 50 nM, PDE4A1A (FAM cAMP) 1500 nM, PDE5A1 (FAM cGMP) 400 nM, PDE6C (FAM cGMP) 700 nM, PDE7A (FAM cAMP) 150 nM, PDE8A1 (FAM cAMP) 50 nM, PDE9A2 (FAM cGMP) 60 nM, PDE10A2 (FAM cAMP) 150 nM, PDE11A4 (FAM cAMP) 1000 nM. The intrinsic PDE2 inhibitory activity of a compound which may be used in accordance with the present invention may be determined by these assays. […]

[1] = Lab A, read-out: Human PDE2 Ki (nM) Lab A
[2] = Lab B, read-out: Human PDE2 Ki (nM) Lab B

T1 sequence (O00408 1-920 isoform O00408-2): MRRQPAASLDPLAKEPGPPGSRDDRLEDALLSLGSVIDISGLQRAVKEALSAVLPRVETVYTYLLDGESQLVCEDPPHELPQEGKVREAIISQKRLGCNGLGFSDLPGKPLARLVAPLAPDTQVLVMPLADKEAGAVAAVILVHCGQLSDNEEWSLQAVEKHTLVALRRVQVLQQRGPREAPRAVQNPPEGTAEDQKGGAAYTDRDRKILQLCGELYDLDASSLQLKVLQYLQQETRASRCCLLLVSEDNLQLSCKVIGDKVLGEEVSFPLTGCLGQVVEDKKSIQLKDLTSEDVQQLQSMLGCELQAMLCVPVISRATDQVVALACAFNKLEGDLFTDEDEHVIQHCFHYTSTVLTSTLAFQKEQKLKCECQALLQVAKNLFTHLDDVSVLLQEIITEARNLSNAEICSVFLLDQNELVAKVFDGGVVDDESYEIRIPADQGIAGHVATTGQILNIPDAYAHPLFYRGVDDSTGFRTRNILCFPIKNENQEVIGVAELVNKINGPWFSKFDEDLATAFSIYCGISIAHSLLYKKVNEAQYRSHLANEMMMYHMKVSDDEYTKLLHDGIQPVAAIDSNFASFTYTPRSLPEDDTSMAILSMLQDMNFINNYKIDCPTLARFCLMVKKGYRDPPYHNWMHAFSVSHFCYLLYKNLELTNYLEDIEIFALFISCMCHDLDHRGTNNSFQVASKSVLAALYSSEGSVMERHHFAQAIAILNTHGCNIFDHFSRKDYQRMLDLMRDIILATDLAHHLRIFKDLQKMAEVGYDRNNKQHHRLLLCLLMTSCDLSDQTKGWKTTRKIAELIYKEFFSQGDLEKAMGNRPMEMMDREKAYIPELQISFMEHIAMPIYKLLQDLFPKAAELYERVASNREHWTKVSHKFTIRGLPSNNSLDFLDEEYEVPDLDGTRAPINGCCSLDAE

| SMILES | Ki [1] [nM] | Ki [2] [nM] |
| --- | --- | --- |
| COc1cc(Cc2nc(-c3cnn(C(C)c4ccc(C(F)(F)F)cc4F)c3)cc(=O)[nH]2)ccc1F (single isomer, unassigned) [Example 143, (S)- or (R)-2-(4-fluoro-3-methoxybenzyl)-6-(1-(1-(2-fluoro-4-(trifluoromethyl)phenyl)ethyl)-1H-pyrazol-4-yl)pyrimidin-4(3H)-one] | 27.9 | – |
| Cc1nc(-c2cnn(C(c3ccc(C(F)(F)F)cc3F)C(C)C)c2)cc(=O)[nH]1 (stereo not shown) [Example 34, 6-(1-(1-(2-fluoro-4-(trifluoromethyl)phenyl)-2-methylpropyl)-1H-pyrazol-4-yl)-2-methylpynmidin-4(3H)-one] | 44.6 | – |
| COc1cccc(Cc2nc(-c3cnn(C(C)c4ccc(C(F)(F)F)cc4F)c3)cc(=O)[nH]2)c1 (single isomer, unassigned) [Example 141, (S)- or (R)-6-(1-(1-(2-fluoro-4-(trifluoromethyl)phenyl)ethyl)-1H-pyrazol-4-yl)-2-(3-methoxybenzyl)pyrimidin-4(3H)-one] | 17.3 | – |
| Cc1nc(-n2cc(C3(C)OCc4cc(C(F)(F)F)ccc43)cn2)cc(=O)[nH]1 (single isomer, unassigned) [Example 28] | – | 72 |
| Cc1nc(-c2cnn(C(C)c3ccc(C(F)(F)F)cc3)c2)cc(=O)[nH]1 (stereo not shown) [Example 126, 2-methyl-6-(1-(1-(4-(trifluoromethyl)phenyl)ethyl)-1H-pyrazol-4-yl)pyrimidin-4(3H)-one] | – | 233 |
| COc1ccc(Cc2nc(-c3cnn(C(C)c4ccc(C(F)(F)F)cc4)c3)cc(=O)[nH]2)cc1OC (single isomer, unassigned) [Example 60, (R)- or (S)-2-(3,4-dimethoxybenzyl)-6-(1-(1-4-(trifluoromethyl)phenyl)ethyl)-1H-pyrazol-4-yl)pyrimidin-4(3H)-one] | 3.7 | 1.1 |
| Cc1nc(-n2cc(C(C)c3ccc(C(F)(F)F)cc3F)cn2)cc(=O)[nH]1 (single isomer, unassigned) [Example 52, (R)- or (S)-6-(4-(1-(2-fluoro-4-(trifluoromethyl)phenyl)ethyl)-1H-pyrazol-1-yl)-2-methylpyrimidin-4(3H)-one] | 12.3 | 4.9 |
| COc1cccc(Cc2nc(-c3cnn(C(C)c4ccc(C(F)(F)F)cc4F)c3)cc(=O)[nH]2)c1 (single isomer, unassigned) [Example 140, (R)- or (S)-6-(1-(1-(2-fluoro-4-(trifluoromethyl)phenyl)ethyl)-1H-pyrazol-4-yl)-2-(3-methoxybenzyl)pyrimidin-4(3H)-one] | 2.6 | – |
| Cc1ccc(C(C)n2cc(-c3cc(=O)[nH]c(C)n3)cn2)cc1 (stereo not shown) [Example 153, 2-methyl-6-(1-(1-(p-tolyl)ethyl)-1H-pyrazol-4-yl)pyrimidin-4(3H)-one] | 1240 | – |
| Cc1nc(-c2ccn(C(C)c3ccc(C(F)(F)F)cc3)n2)cc(=O)[nH]1 (single isomer, unassigned) [Example 78, (S)- or (R)-2-methyl-6-(1-{(1R)-1-[4-(trifluoromethyl)phenyl]ethyl}-1H-pyrazol-3-yl)pyrimidin-4(3H)-one] | – | 255 |
| Cc1nc(-c2cnn(C3(c4ccc(C(F)(F)F)cc4F)CCC3)c2)cc(=O)[nH]1 [Example 37, 6-(1-(1-(2-fluoro-4-(trifluoromethyl)phenyl)cyclobutyl)-1H-pyrazol-4-yl)-2-methylpyrimidin-4(3H)-one] | 7.9 | – |
| Cc1nc(-c2cnn(C(C)c3ccc(S(F)(F)(F)(F)F)cc3)c2)cc(=O)[nH]1 (single isomer, unassigned) [Example 63, (S)- or (R)-2-methyl-6-(1-(1-(4-(pentafluorosulfanyl)phenyl)ethyl)-1H-pyrazol-4-yl)pyrimidin-4(3H)-one] | – | 46.5 |
| Cc1nc(-n2cc([C@H](CO)c3ccc(C(F)(F)F)cc3F)cn2)cc(=O)[nH]1 (single isomer, unassigned) [Example 20] | 32.3 | 16.8 |
| Cc1nc(-n2ccc([C@H](C)c3ccc(C(F)(F)F)cc3)n2)cc(=O)[nH]1 (single isomer, unassigned) [Example 5] | – | 174 |
| CC(C)c1nc(-c2cnn(C(C)c3ccc(C(F)(F)F)cc3F)c2)cc(=O)[nH]1 (stereo not shown) [Example 9, 6-(1-(1-(2-Fluoro-4-(trifluoromethyl)phenyl)ethyl)-1H-pyrazol-4-yl)-2-isopropylpyrimidin-4(3H)-one] | 104 | – |
| Cc1nc(-c2cnn(Cc3ccc(OC(F)(F)F)cc3)c2)cc(=O)[nH]1 [Example 29, 2-Methyl-6-(1-(4-(trifluoromethoxy)benzyl)-1H-pyrazol-4-yl)pyrimidin-4(3H)-one] | – | 829 |
| CCc1ccc(C(C)n2cc(-c3cc(=O)[nH]c(C)n3)cn2)c(Cl)c1 (single isomer, unassigned) [Example 99, (R)- or (S)-6-(1-(1-(2-chloro-4-ethylphenyl)ethyl)-1H-pyrazol-4-yl)-2-methylpyrimidin-4(3H)-one] | 10.4 | – |
| CC(c1ccc(C(F)(F)F)cc1F)n1cc(-c2cc(=O)[nH]c(Cc3ccccc3)n2)cn1 (stereo not shown) [Example 35, 2-benzyl-6-(1-(1-(2-fluoro-4-(trifluoromethyl)phenyl)ethyl)-1H-pyrazol-4-yl)pyrimidin-4(3H)-one] | 60.4 | – |
| COc1ccc(Cc2nc(-c3cnn(C(C)c4ccc(S(F)(F)(F)(F)F)cc4)c3)cc(=O)[nH]2)cc1OC (single isomer, unassigned) [Example 64, (R)- or (S)-2-(3,4-dimethoxybenzyl)-6-(1-(1-(4-(pentafluorosulfanyl)phenyl)ethyl)-1H-pyrazol-4-yl)pyrimidin-4(3H)-one] | 7.2 | 3.3 |
| Cc1nc(-c2cc([C@H](C)c3ccc(C(F)(F)F)cc3)[nH]n2)cc(=O)[nH]1 (single isomer, unassigned) [Example 24] | – | 81 |
| COc1ccc(Cc2nc(-c3cnn(C(C)c4ccc(C(F)(F)F)cc4F)c3)cc(=O)[nH]2)cc1 (single isomer, unassigned) [Example 138, (R)- or (S)-6-(1-(1-(2-fluoro-4-(trifluoromethyl)phenyl)ethyl)-1H-pyrazol-4-yl)-2-(4-methoxybenzyl)pyrimidin-4(3H)-one] | 7.1 | 5.1 |
| Cc1nc(-c2cnn(C(C)c3ccc(C4CC4)cc3F)c2)cc(=O)[nH]1 (single isomer, unassigned) [Example 91, (R)- or (S)-6-(1-(1-(4-cyclopropyl-2-fluorophenyl)ethyl)-1H-pyrazol-4-yl)-2-methylpyrimidin-4(3H)-one] | 48.4 | – |
| COc1ccc(Cc2nc(-n3ccc(C(C)c4ccc(C(F)(F)F)cc4)n3)cc(=O)[nH]2)cc1OC (single isomer, unassigned) [Example 133, (R)- or (S)-2-(3,4-dimethoxybenzyl)-6-(3-(1-(4-(trifluoromethyl)phenyl)ethyl)-1H-pyrazol-1-yl)pyrimidin-4(3H)-one] | – | 38.5 |
| CCc1nc(-c2cnn(C(C)c3ccc(C(F)(F)F)cc3F)c2)cc(=O)[nH]1 (stereo not shown) [Example 36, 2-ethyl-6-(1-(1-(2-fluoro-4-(trifluoromethyl)phenyl)ethyl)-1H-pyrazol-4-yl)pyrimidin-4(3H)-one] | 17.2 | – |
| Cc1nc(-n2cc([C@H](C)c3ccc(C(F)(F)F)cc3)cn2)cc(=O)[nH]1 (single isomer, unassigned) [Example 4] | 18.2 | 14.4 |
| Cc1nc(-c2cnn(C(C)c3ccc(C(F)(F)F)cc3C)c2)cc(=O)[nH]1 (single isomer, unassigned) [Example 57, (S)- or (R)-2-methyl-6-(1-(1-(2-methyl-4-(trifluoromethyl)phenyl)ethyl)-1H-pyrazol-4-yl)pyrimidin-4(3H)-one] | 16.4 | 6.8 |
| Cc1nc(-n2cc(Cc3ccc(OC(F)(F)F)cc3)cn2)cc(=O)[nH]1 [Example 30, 2-Methyl-6-(4-(4-(trifluoromethoxy)benzyl)-1H-pyrazol-1-yl)pyrimidin-4(3H)-one] | – | 1110 |
